# Entries after “also recorded” stand apart in the source; their conditions may differ. Where two headings read alike, the source gives them in different places.
# Legend:
# [1] = tested on: guinea pig isolated heart; assay: K-H buffer perfused guinea pig isolated heart: MAP duration, EADs and VT; conditions: for Effect on ATXII-induced EADs and MAP prolongation: ranolazine 10 μM; for Decrease of MAPS90: ranolazine 10 μmol/L; for Effect on ATXII-induced EADs and VT: ranolazine 5, 10 and 30 μM in the presence of ATXII
# From the text: To study the effect of ranolazine on ATXII induced MAP (monophasic action potential) duration prolongation, EADs and ventricular tachyarrhythmia (VT), the K—H buffer perfused guinea pig isolated heart model was used.
# Multiple EADs and sustained depolarizations were frequently observed.
# [2] = Solubility of ranolazine in aqueous solutions as a function of pH; format: physicochemical
# Description: In the following examples solutions of ranolazine in water or solutions with a pH above 6 are made up of ranolazine dihydrochloride. In the discussion portions of the following examples, concentrations of ranolazine found as a result of experiments are calculated as ranolazine free base.
# [3] = tested on: transient outward current (Ito); assay: Transient outward current voltage clamp in isolated canine left ventricular myocytes; format: cell-based; conditions: for Effect on Ito: any of the test voltages
# [4] = target: T1, slowly activating component of the delayed rectifier current (IKs) (Canis lupus familiaris, UniProt A0A8I3N8W8); assay: Whole cell voltage clamp of IKs tail current in isolated canine left ventricular myocytes; format: cell-based
# T1 construct: Myocytes were isolated by enzymatic dissociation from a wedge-shaped section of the left ventricular free wall; endogenous in cells; host or cells: isolated canine left ventricular myocytes
# T1 sequence (A0A8I3N8W8 1-676): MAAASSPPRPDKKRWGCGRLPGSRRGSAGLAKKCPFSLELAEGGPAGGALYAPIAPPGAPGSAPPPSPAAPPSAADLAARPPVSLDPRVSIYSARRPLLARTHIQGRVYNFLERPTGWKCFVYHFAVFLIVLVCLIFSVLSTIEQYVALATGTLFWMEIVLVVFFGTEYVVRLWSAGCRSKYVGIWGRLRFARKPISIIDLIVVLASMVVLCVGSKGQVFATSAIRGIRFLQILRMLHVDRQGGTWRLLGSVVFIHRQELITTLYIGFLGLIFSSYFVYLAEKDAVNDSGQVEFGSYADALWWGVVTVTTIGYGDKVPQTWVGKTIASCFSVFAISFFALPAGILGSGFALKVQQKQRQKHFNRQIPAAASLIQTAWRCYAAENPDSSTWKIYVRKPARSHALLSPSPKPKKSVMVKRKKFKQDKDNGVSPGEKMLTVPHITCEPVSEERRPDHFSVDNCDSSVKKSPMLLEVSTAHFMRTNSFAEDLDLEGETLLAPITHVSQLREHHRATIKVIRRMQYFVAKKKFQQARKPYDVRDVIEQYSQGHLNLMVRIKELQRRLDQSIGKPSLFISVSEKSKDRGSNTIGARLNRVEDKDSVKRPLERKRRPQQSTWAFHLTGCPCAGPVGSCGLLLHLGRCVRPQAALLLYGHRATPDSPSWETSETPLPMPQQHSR
# Description: Myocytes were isolated by enzymatic dissociation from a wedge-shaped section of the left ventricular free wall supplied by the left circumflex coronary artery. Cells from the epicardial and midmyocardial regions of the left ventricle were used in this study.
# Inward rectifier potassium current (IK), slow delayed rectifier potassium current (IKs), and rapid delayed rectifier potassium current (IKr) were recorded at 37° C. using conventional whole cell voltage clamp configuration.
# IK1 was measured using an external solution containing 3 μM ouabain and 5 μM nifedipine to block the sodium-potassium pump and L-type calcium current (ICa,L), respectively. […] 5 μM nifedipine was present in the external solution when IKr was being recorded.
# Isolated myocytes were placed in a temperature controlled 0.5 ml chamber (Medical Systems, Greenvale, N.Y.) on the stage of an inverted microscope and superfused at a rate of 2 ml/min. An eight-barrel quartz micromanifold (ALA Scientific Instruments Inc., Westbury, N.Y.) placed 100 μm from the cell was used to apply ranolazine at concentrations of (in μM): 0.1, 0.5, 1.0, 5.0, 10 and 100.0. An Axopatch 1D amplifier (Axon Instruments, Foster City, Calif.) was operated in voltage clamp mode to record currents. […]
# M cell preparations = tested on: M cell preparations; parameters: species or system canine; conditions: for Amplitude / Overshoot / RMP: BCL = 500 msec; for Reduction of Vmax: preparation type not stated
# Description: The composition of the Tyrode's solution was (in mM): […] Action potential recordings: Transmembrane potentials were recorded using standard glass microelectrodes filled with 2.7 M KCl (10 to 20 MΩ DC resistance) connected to a high input-impedance amplification system (World Precision Instruments, Sarasota, Fla., USA). […] Data recorded at BCLs of 500 and 2000 msec are presented.
# [5] = M cell, low [K+]o, BCL = 2000 msec
compound,measurement,setting,value
"COc1ccccc1OCC(O)CN1CCN(CC(=O)Nc2c(C)cccc2C)CC1 (racemic) [ranolazine, N-(2,6-dimethylphenyl)-4-[2-hydroxy-3-(2-methoxyphenoxy)propyl]-1-piperazineacetamide]",Effect on ATXII-induced EADs and MAP prolongation,[1]; ATXII 20 nM,reversed
same,Effect on ATXII-induced EADs and MAP prolongation,"[1]; ATXII 20 nM, listed as Ranolazine",reduced or effectively abolished
same,Decrease of MAPS90,[1]; ATX-II plus 293B,8.3±0.1%
same,Decrease of MAPS90,[1]; ATX-II plus E-4031,24.5±0.1%
same,Effect on ATXII-induced VT,"[1]; ranolazine 30 μM, ATXII 20 nM",reduced or effectively abolished
same,Effect on ATXII-induced EADs and VT,[1],VTs were terminated
same,Effect on ATXII-induced EADs and VT,[1]; listed as Ranolazine,significantly suppressed EADs and VT
same,USP Solubility Class,[2]; solution pH 4.81,Freely Soluble
same,USP Solubility Class,[2]; solution pH 4.89,Soluble
same,USP Solubility Class,[2]; solution pH 4.90,Soluble
same,USP Solubility Class,[2]; solution pH 5.04,Soluble
same,USP Solubility Class,[2]; solution pH 5.35,Sparingly Soluble
same,USP Solubility Class,[2]; solution pH 5.82,Slightly soluble
same,USP Solubility Class,[2]; solution pH 6.46,Slightly soluble
same,USP Solubility Class,[2]; solution pH 6.73,Very slightly soluble
same,USP Solubility Class,[2]; solution pH 7.08,Very slightly soluble
same,USP Solubility Class,[2]; solution pH 7.59 (unbuffered water),Very slightly soluble
same,USP Solubility Class,[2]; solution pH 7.79,Very slightly soluble
same,USP Solubility Class,[2]; solution pH 12.66,Very slightly soluble
same,Effect on Ito,[3]; ranolazine 10 μM,no effect
same,Effect on Ito,[3]; ranolazine 20 μM,no effect
same,Reduction of peak Ito,"[3]; ranolazine 50 μM, 4 min",less than 10
same,Reduction of Ito,"[3]; ranolazine 50 μM, test potential 10 mV",10±2%
same,Reduction of Ito,"[3]; ranolazine 100 μM, test potential 0 mV",16±3%
same,Reduction of Ito,"[3]; ranolazine 100 μM, test potential 10 mV",17±4%
same,Block of IKs tail current,"[4]; ranolazine 100 μM, reversed on washout",largely eliminated the tail current; also recorded: almost completely blocked
same,IC50,[4]; read-out: IC50 for inhibition of IKs tail current,13.4 µM
same,Effect on APD,"M cell preparations; M cell preparations, BCL 500 msec",abbreviation
same,Effect on APD50 and APD90,"M cell preparations; M cell, [K+]o = 4 mM, BCL = 2000 msec",concentration-dependent abbreviation
same,Effect on repolarization,"M cell preparations; M cell, low [K+]o, BCL 500 msec",little change
same,Effect on APD50,M cell preparations; [5],concentration-dependent abbreviation
same,Effect on APD90,M cell preparations; [5],no significant change
same,Amplitude,"M cell preparations; M cell, ranolazine 1.0 μM",109 ± 9
same,Overshoot,"M cell preparations; M cell, ranolazine 1.0 μM",23 ± 10
same,RMP,"M cell preparations; M cell, ranolazine 1.0 μM",−86 ± 3
same,Amplitude,"M cell preparations; M cell, ranolazine 5.0 μM",114 ± 8
same,Overshoot,"M cell preparations; M cell, ranolazine 5.0 μM",27 ± 7
same,RMP,"M cell preparations; M cell, ranolazine 5.0 μM",−86 ± 3
same,Amplitude,"M cell preparations; M cell, ranolazine 10.0 μM",113 ± 9
same,Overshoot,"M cell preparations; M cell, ranolazine 10.0 μM",25 ± 8
same,RMP,"M cell preparations; M cell, ranolazine 10.0 μM",−86 ± 2
same,Amplitude,"M cell preparations; M cell, ranolazine 50.0 μM",104 ± 7
same,Overshoot,"M cell preparations; M cell, ranolazine 50.0 μM",19 ± 3
same,RMP,"M cell preparations; M cell, ranolazine 50.0 μM",−86 ± 5
same,Amplitude,"M cell preparations; M cell, ranolazine 100.0 μM",91 ± 19
same,Overshoot,"M cell preparations; M cell, ranolazine 100.0 μM",9 ± 13
same,RMP,"M cell preparations; M cell, ranolazine 100.0 μM",−86 ± 7
same,Reduction of Vmax,"M cell preparations; ranolazine 10 μM, BCL 500 msec",modest (n.s.)
same,Reduction of Vmax,"M cell preparations; ranolazine 100 μM, BCL 500 msec",more substantial
same,Preparations in which d-sotalol-induced EAD activity was suppressed and APD abbreviated,"M cell preparations; ranolazine 5-20 μM, 100 μM d-sotalol, M cell preparations",4/4

# Reference: patent publication US20080109040A1, “METHOD OF TREATING ARRHYTHMIAS” (priority 2002, published 2008)
